The source made the active and inactive calls. The rule behind the calls is not given here.
Columns and labels:
[1] = Toxicity in ICR mouse assessed as histopathological changes in liver at 25 mg/kg, iv administered as single dose through tail vein and measured after 14 days by H and E staining based analysis; assay type: organism-based; settings: in vivo, 336 h, time 14 day
[2] = test system: Mus musculus; assay: In vivo antagonism of dalteparin sodium induced anticoagulation in ICR mouse assessed as blood loss at 0.4 mg/kg, iv administered via tail vein pretreated with heparin for 5 mins followed by compound addition and measured after 5 mins (reference value: 324.4 +/- 139.5 microL); assay type: functional
[3] = Binding affinity to nadroparin calcium in saline at pH 7.4 assessed as change in enthalpy by ITC analysis
[4] = species on record: Homo sapiens; assay: Reversal of anticoagulation of dalteparin sodium in human whole blood assessed as restoration of normal coagulation rate at 5 to 20 ug/ml incubated for 5 mins by thromboelastography; assay type: tissue-based; settings: dose 5-20 µg/ml
[5] = species on record: Bos taurus; assay: Neutralization of enoxaparin sodium in bovine plasma at 10 to 60 ug/ml by aPTT assay; assay type: cell-free; settings: dose 10-60 µg/ml
[6] = test system: Rattus norvegicus; assay: In vivo antagonism of enoxaparin sodium induced anticoagulation in Sprague-Dawley rat assessed as restoration of normal clotting time at 1 mg/kg, iv administered via tail vein pretreated with enoxaparin sodium for 5 mins followed by compound addition and measured after 2.5 mins by thromboelastography; assay type: functional, organism-based
[7] = species on record: Homo sapiens; assay: Neutralization of nadroparin calcium in human poor platelet plasma at 10 to 50 ug/ml by aPTT assay relative to control; assay type: cell-free; settings: dose 10-50 µg/ml
[8] = test system: Erythrocyte; assay: Hemolytic activity in Sprague-Dawley rat red blood cells at 512 ug/ml; assay type: toxicity, cell-based; settings: dose 512 µg/ml
[9] = Acute toxicity in iv dosed ICR mouse assessed as maximum tolerated dose measured after 7 days; assay type: organism-based; settings: in vivo, time 7 day
[10] = species on record: Bos taurus; assay: Neutralization of dalteparin sodium in bovine plasma at 10 to 60 ug/ml by aPTT assay; assay type: cell-free; settings: dose 10-60 µg/ml
[11] = Toxicity in ICR mouse assessed as effect on animal activity at 25 mg/kg, iv administered as single dose through tail vein and measured on day 2; assay type: organism-based; settings: in vivo, 48 h, time 2 day
[12] = test system: Blood; assay: Ex vivo neutralization of enoxaparin sodium in Sprague-Dawley rat whole blood assessed as restoration of blood coagulation at 10 to 15 ug/ml incubated for 15 mins; assay type: functional, tissue-based; settings: dose 10-15 µg/ml
[13] = Binding affinity to dalteparin sodium in saline at pH 7.4 assessed as change in entropy by ITC analysis
[14] = test system: Blood; assay: Ex vivo neutralization of unfractionated heparin in Sprague-Dawley rat whole blood assessed as restoration of blood coagulation at 10 to 15 ug/ml incubated for 15 mins; assay type: functional, tissue-based; settings: dose 10-15 µg/ml
[15] = Binding affinity to nadroparin calcium in saline at pH 7.4 assessed as increase in fluorescence by measuring inflection point by fluorescence titration method
[16] = Blood compatibility in bovine plasma assessed as activated partial thromboplastin time at <45 ug/ml by turbidimetry method; assay type: toxicity, cell-free, Bos taurus; settings: cattle, dose < 45 µg/ml
[17] = Binding affinity to enoxaparin sodium in saline at pH 7.4 assessed as increase in fluorescence by measuring inflection point by fluorescence titration method
[18] = test system: Mus musculus; assay: In vivo antagonism of dalteparin sodium induced anticoagulation in ICR mouse assessed as bleeding time at 0.4 mg/kg, iv administered via tail vein pretreated with heparin for 5 mins followed by compound addition and measured after 5 mins (reference value: 96.5 +/- 20.6 min); assay type: functional
[19] = species on record: Homo sapiens; assay: Reversal of anticoagulation of nadroparin calcium in human whole blood assessed as restoration of normal coagulation rate at 5 to 20 ug/ml incubated for 5 mins by thromboelastography; assay type: tissue-based; settings: dose 5-20 µg/ml
[20] = Binding affinity to unfractionated heparin in saline at pH 7.4 assessed as change in enthalpy by ITC analysis
[21] = Cytotoxicity against rat H9c2 cells assessed as cell viability at 300 ug/ml incubated for 24 hrs by CCK-8 assay relative to control; assay type: toxicity, cell-based; settings: at 300 µg/mL, read-out: Activity
[22] = Induction of blood loss in ICR mouse at 0.4 mg/kg, iv treated for 5 mins; assay type: toxicity, organism-based; settings: in vivo
[23] = species on record: Homo sapiens; assay: Reversal of anticoagulation of enoxaparin sodium in human whole blood assessed as restoration of normal coagulation rate at 5 to 20 ug/ml incubated for 5 mins by thromboelastography; assay type: tissue-based; settings: dose 5-20 µg/ml
[24] = test system: Blood; assay: Ex vivo neutralization of dalteparin sodium in Sprague-Dawley rat whole blood assessed as restoration of blood coagulation at 10 to 15 ug/ml incubated for 15 mins; assay type: functional, tissue-based; settings: dose 10-15 µg/ml
[25] = test system: Rattus norvegicus; assay: In vivo antagonism of enoxaparin sodium induced anticoagulation in Sprague-Dawley rat assessed as restoration of normal clotting strength at 1 mg/kg, iv administered via tail vein pretreated with enoxaparin sodium for 5 mins followed by compound addition and measured after 2.5 mins by thromboelastography; assay type: functional, organism-based
[26] = Binding affinity to nadroparin calcium in saline at pH 7.4 assessed as binding constant by ITC analysis
[27] = species on record: Homo sapiens; assay: Reversal of anticoagulation of nadroparin calcium in human whole blood assessed as restoration of normal clotting time at 5 to 20 ug/ml incubated for 5 mins by thromboelastography; assay type: tissue-based; settings: dose 5-20 µg/ml
[28] = species on record: Homo sapiens; assay: Reversal of anticoagulation of dalteparin sodium in human whole blood assessed as minimum effective dose incubated for 5 mins by thromboelastography; assay type: tissue-based
[29] = Binding affinity to enoxaparin sodium in saline at pH 7.4 assessed as change in entropy by ITC analysis
[30] = species on record: Homo sapiens; assay: Neutralization of dalteparin sodium in human poor platelet plasma at 10 to 50 ug/ml by aPTT assay relative to control; assay type: cell-free; settings: dose 10-50 µg/ml
[31] = species on record: Homo sapiens; assay: Reversal of anticoagulation of dalteparin sodium in human whole blood assessed as restoration of normal clotting strength at 2 to 20 ug/ml incubated for 5 mins by thromboelastography; assay type: tissue-based; settings: dose 2-20 µg/ml
[32] = species on record: Homo sapiens; assay: Reversal of anticoagulation of unfractionated heparin in human whole blood assessed as restoration of normal coagulation rate at 5 to 20 ug/ml incubated for 5 mins by thromboelastography; assay type: tissue-based; settings: dose 5-20 µg/ml
[33] = Binding affinity to dalteparin sodium in saline at pH 7.4 assessed as change in enthalpy by ITC analysis
[34] = Effect on bleeding time in ICR mouse at 0.4 mg/kg, iv treated for 5 mins; assay type: toxicity, organism-based; settings: in vivo
[35] = Binding affinity to unfractionated heparin in saline at pH 7.4 assessed as binding constant by ITC analysis
[36] = Binding affinity to dalteparin sodium in saline at pH 7.4 assessed as change in gibbs free energy by ITC analysis
[37] = test system: Erythrocyte; assay: Hemolytic activity in human red blood cells at 512 ug/ml; assay type: toxicity, cell-based; settings: dose 512 µg/ml
[38] = Binding affinity to enoxaparin sodium in saline at pH 7.4 assessed as change in gibbs free energy by ITC analysis
[39] = test system: Rattus norvegicus; assay: In vivo antagonism of enoxaparin sodium induced anticoagulation in Sprague-Dawley rat assessed as clotting strength at 0.4 mg/kg, iv administered via tail vein pretreated with enoxaparin sodium for 5 mins followed by compound addition and measured after 2.5 mins by thromboelastography; assay type: functional
[40] = species on record: Homo sapiens; assay: Neutralization of enoxaparin sodium in human poor platelet plasma at 10 to 50 ug/ml by aPTT assay relative to control; assay type: cell-free; settings: dose 10-50 µg/ml

NCCOc1ccc(-c2cc[n+](Cc3ccc(C(c4ccc(C[n+]5ccc(-c6ccc(OCCN)c(OCCN)c6)cc5)cc4)(c4ccc(C[n+]5ccc(-c6ccc(OCCN)c(OCCN)c6)cc5)cc4)c4ccc(C[n+]5ccc(-c6ccc(OCCN)c(OCCN)c6)cc5)cc4)cc3)cc2)cc1OCCN.[Cl-].[Cl-].[Cl-].[Cl-]
Activity [1]: Non-Toxic | Activity [2]: 26 µL | deltaH [3]: -6.53 kcal/mol | Activity [4]: Active | Activity [5]: Active | Activity [6]: Active | Activity [7]: 99% | Activity [8]: Non-Toxic | MTD at 168 h [9]: 25 mg/kg | Activity [10]: Active | Activity [11]: Toxic | Activity [12]: Active | -TdeltaS [13]: -5.41 kcal/mol | Activity [14]: Active | IP [15]: 3 | APTT [16]: 23 s | IP [17]: 2.2 | Time [18]: 20.9 min | Activity [19]: Active | deltaH [20]: -5.86 kcal/mol | viability at 24 h, 300 ug/ml [21]: > 80% | Activity [22]: Non-Toxic | Activity [23]: Active | Activity [24]: Active | Activity [25]: Active | Ka [26]: 1.87e+07 M⁻¹ | Activity [27]: Active | MED [28]: 4 µg/mL | -TdeltaS [29]: -2.05 kcal/mol | Activity [30]: 99% | Activity [31]: Active | Activity [32]: Active | deltaH [33]: -5.07 kcal/mol | Activity [34]: Non-Toxic | Ka [35]: 2.92e+07 M⁻¹ | deltaG [36]: -10.5 kcal/mol | Activity [37]: Non-Toxic | deltaG [38]: -9.91 kcal/mol | Activity [39]: 67 mm | Activity [40]: 97%

From ChEMBL document CHEMBL5518209, “Caltrop-like Small-Molecule Antidotes That Neutralize Unfractionated Heparin and Low-Molecular-Weight Heparin In Vivo” (J Med Chem, 2024)
